What was measured:
Format in all cases: in vivo
[1] = system: diamondback moths (Plutella xylostella); test: Test Example 1: spray on cabbage, third-instar larvae of diamondback moths; details: 20 ml/cup spray on cabbage, 10 third-instar larvae, counted after 5 days; for pest or weed control at 500 ppm: Plutella xylostella, 120 h, 500 ppm active ingredient, read-out: controlling value
Procedure: Then, it will be shown by Test Examples that the present compound is effective in controlling harmful arthropods. In the Test Example, controlling values were calculated by the following equation: Controlling value(%)={1−(Cb×Tai)/(Cai×Tb)}×100 wherein Cb: the number of worms in a non-treated section before treatment Cai: the number of worms in a non-treated section on observation Tb: the number of worms in a treated-section before treatment Tai: the number of worms in a treated-section on observation. Preparations of the test compounds obtained in Formulation Example 5 were diluted with water so that the active ingredient concentration became 500 ppm, to prepare test spray solutions. At the same time, cabbage was planted in a polyethylene cup, and grown until the third true leaf or the fourth true leaf was developed. The test spray solution as described above was sprayed in an amount of 20 ml/cup on the cabbage. After the spray solution on the cabbage was dried, 10 third-instar larvae of diamondback moths (Plutella xylostella) were put on the cabbage. After 5 days, the number of diamondback moths was counted, and the controlling value was calculated by the above equation. Furthermore, preparations of the test compound (7) and a comparative compound of the formula [drawing 523] obtained in a formulation according to Formulation Example 5 were diluted with water so that the active ingredient concentration became 0.2 ppm, to prepare test spray solution. At the same time, cabbage was planted in a polyethylene cup, and grown until the third true leaf or the fourth true leaf was developed. The test spray solution as described above was sprayed in an amount of 20 ml/cup on the cabbage. After the spray solution on the cabbage was dried, 10 third-instar larvae of diamondback moths (Plutella xylostella) were put on the cabbage. After 5 days, the number of diamondback moths was counted, and the controlling value was calculated by the above equation.

[2] = system: Spodoptera litura; test: Test Example 3: spray on cabbage, fourth-instar larvae of Spodoptera litura; details: 120 h, 500 ppm active ingredient, 20 ml/cup spray on cabbage, 10 fourth-instar larvae, counted after 5 days, read-out: controlling value
Procedure: Then, it will be shown by Test Examples that the present compound is effective in controlling harmful arthropods. In the Test Example, controlling values were calculated by the following equation: Controlling value(%)={1−(Cb×Tai)/(Cai×Tb)}×100 wherein Cb: the number of worms in a non-treated section before treatment Cai: the number of worms in a non-treated section on observation Tb: the number of worms in a treated-section before treatment Tai: the number of worms in a treated-section on observation. Preparations of the test compounds obtained in Formulation Example 5 were diluted with water so that the active ingredient concentration became 500 ppm to prepare test spray solutions. At the same time, cabbage was planted in a polyethylene cup, and grown until the third true leaf or the fourth true leaf was developed. The test spray solution as described above was sprayed in an amount of 20 ml/cup on the cabbage. After the spray solution sprayed on the cabbage was dried, 10 fourth-instar larvae of Spodoptera litura were put on the cabbage. After 5 days, the number of Spodoptera litura surviving on the cabbage leaves was counted, and a controlling value was calculated by the above equation.

[3] = system: cotton aphids (Aphis gossypii); test: Test Example 2: spray on cucumber infested with cotton aphids; details: topical, 144 h, 500 ppm active ingredient, 20 ml/cup spray on cucumber, about 30 aphids, counted six days after spraying, read-out: controlling value
Procedure: Then, it will be shown by Test Examples that the present compound is effective in controlling harmful arthropods. In the Test Example, controlling values were calculated by the following equation: Controlling value(%)={1−(Cb×Tai)/(Cai×Tb)}×100 wherein Cb: the number of worms in a non-treated section before treatment Cai: the number of worms in a non-treated section on observation Tb: the number of worms in a treated-section before treatment Tai: the number of worms in a treated-section on observation. Preparations of the test compounds obtained in Formulation Example 5 were diluted with water so that the active ingredient concentration became 500 ppm to prepare test spray solutions. At the same time, cucumber was planted in a polyethylene cup, and was grown until the first true leaf was developed. About 30 cotton aphids were put on the cucumber. One day after, the test spray solution as described above was sprayed in an amount of 20 ml/cup on the cucumber. Six days after spraying, the number of cotton aphids (Aphis gossypii) was counted, and a controlling value was calculated by the above equation.

[4] = system: Adoxophyes orana fasciata; test: Test Example 4: spray on apple seedling, first-instar larvae of Adoxophyes orana fasciata; details: 168 h, 500 ppm active ingredient, 20 ml spray on apple seedling, about 30 first-instar larvae, counted seven days after spraying, read-out: controlling value
Procedure: Then, it will be shown by Test Examples that the present compound is effective in controlling harmful arthropods. In the Test Example, controlling values were calculated by the following equation: Controlling value(%)={1−(Cb×Tai)/(Cai×Tb)}×100 wherein Cb: the number of worms in a non-treated section before treatment Cai: the number of worms in a non-treated section on observation Tb: the number of worms in a treated-section before treatment Tai: the number of worms in a treated-section on observation. Preparations of the test compounds obtained in Formulation Example 5 were diluted with water so that the active ingredient concentration became 500 ppm to prepare test spray solutions. At the same time, 20 ml of the test spray solution as described above was sprayed to an apple seedling (28 day-old seeding, tree height: about 15 cm) planted in a plastic cup. The apple seedling was air-dried to such an extent that the spray solution sprayed on the apple seedling was dried. About 30 first-instar larvae of Adoxophyes orana fasciata were released. Seven days after spraying, the number of worms surviving on the apple seedling was counted, and a controlling value was calculated by the above equation.

Compound	pest or weed control at 500 ppm [1] [%]	pest or weed control at 500 ppm [2] [%]	pest or weed control at 500 ppm [3] [%]	pest or weed control at 500 ppm [4] [%]	control value ([1]; 0.2 ppm active ingredient)
COC(=O)NNC(=O)c1cccnc1NC(=O)c1cc(C(F)(F)F)nn1-c1ncccc1Cl [Compound 17, N′-(2-{[2-(3-chloro-pyridin-2-yl)-5-trifluoromethyl-2H-pyrazole-3-carbonyl]-amino}-pyridine-3-carbonyl)-hydrazinecarboxylic acid methyl ester]	≥ 90	≥ 80	–	–	–
COC(=O)NNC(=O)c1cc(Cl)nc(Br)c1NC(=O)c1cc(Br)nn1-c1ncccc1Cl [Compound 4, N′-(2-bromo-3-{[5-bromo-2-(3-chloro-pyridin-2-yl)-2H-pyrazole-3-carbonyl]-amino}-6-chloro-pyridine-4-carbonyl)-hydrazinecarboxylic acid methyl ester]	≥ 90	≥ 80	≥ 90	≥ 90	–
CCN(NC(=O)c1nc(Cl)cc(C)c1NC(=O)c1cc(Br)nn1-c1ncccc1Cl)C(=O)OC [Compound 10, N′-(3-{[5-bromo-2-(3-chloro-pyridin-2-yl)-2H-pyrazole-3-carbonyl]-amino}-6-chloro-4-methyl-pyridine-2-carbonyl)-N-ethyl-hydrazinecarboxylic acid methyl ester]	≥ 90	≥ 80	≥ 90	–	–
COC(=O)NNC(=O)c1cc(Br)nc(Br)c1NC(=O)c1cc(Br)nn1-c1ncccc1Cl [Compound 5, N′-(2,6-dibromo-3-{[5-bromo-2-(3-chloro-pyridin-2-yl)-2H-pyrazole-3-carbonyl]-amino}-pyridine-4-carbonyl)-hydrazinecarboxylic acid methyl ester]	≥ 90	≥ 80	≥ 90	≥ 90	–
COC(=O)NNC(=O)c1scc(C)c1NC(=O)c1cc(Br)nn1-c1ncccc1Cl [Compound 18, N′-(3-{[5-bromo-2-(3-chloro-pyridin-2-yl)-2H-pyrazole-3-carbonyl]-amino}-4-methyl-thiophene-2-carbonyl)-hydrazinecarboxylic acid methyl ester]	–	–	≥ 90	–	–
Cc1cc(Cl)nc(C(=O)NN(C)C)c1NC(=O)c1cc(Br)nn1-c1ncccc1Cl [reference compound]	–	–	–	–	less than 80%
COC(=O)N(C)N(C)C(=O)c1nc(Cl)cc(C)c1NC(=O)c1cc(Br)nn1-c1ncccc1Cl [Compound 9, N′-(3-{[5-bromo-2-(3-chloro-pyridin-2-yl)-2H-pyrazole-3-carbonyl]-amino}-6-chloro-4-methyl-pyridine-2-carbonyl)-N,N′-dimethyl-hydrazinecarboxylic acid methyl ester]	≥ 90	≥ 80	≥ 90	–	–
CCN(NC(=O)OC)C(=O)c1nc(Br)cc(Br)c1NC(=O)c1cc(Br)nn1-c1ncccc1Cl [Compound 16, N′-(4,6-dibromo-3-{[5-bromo-2-(3-chloro-pyridin-2-yl)-2H-pyrazole-3-carbonyl]-amino}-pyridine-2-carbonyl)-N′-ethyl-hydrazinecarboxylic acid methyl ester]	≥ 90	≥ 80	≥ 90	–	–
CCN(NC(=O)OC)C(=O)c1nc(Cl)cc(C)c1NC(=O)c1cc(Br)nn1-c1ncccc1Cl [Compound 11, N′-(3-{[5-bromo-2-(3-chloro-pyridin-2-yl)-2H-pyrazole-3-carbonyl]-amino}-6-chloro-4-methyl-pyridine-2-carbonyl)-N′-ethyl-hydrazine carboxylic acid methyl ester]	≥ 90	≥ 80	≥ 90	–	–
COC(=O)NNC(=O)c1nc(Cl)cc(Br)c1NC(=O)c1cc(Br)nn1-c1ncccc1Cl [Compound 15, N′-(4-bromo-3-{[5-bromo-2-(3-chloro-pyridin-2-yl)-2H-pyrazole-3-carbonyl]-amino}-6-chloro-pyridine-2-carbonyl)-hydrazine carboxylic acid methyl ester]	≥ 90	≥ 80	≥ 90	≥ 90	–
COC(=O)NNC(=O)c1nc(Cl)cc(Cl)c1NC(=O)c1cc(Br)nn1-c1ncccc1Cl [Compound 14, N′-(3-{[5-bromo-2-(3-chloro-pyridin-2-yl)-2H-pyrazole-3-carbonyl]-amino}-4,6-dichloro-pyridine-2-carbonyl)-hydrazinecarboxylic acid methyl ester]	≥ 90	≥ 80	≥ 90	≥ 90	–
COC(=O)NNC(=O)c1cc(Cl)nc(Cl)c1NC(=O)c1cc(C(F)(F)F)nn1-c1ncccc1Cl [Compound 2, N′-(2,6-dichloro-3-{[2-(3-chloro-pyridin-2-yl)-5-trifluoromethyl-2H-pyrazole-3-carbonyl]-amino}-pyridine-4-carbonyl)-hydrazinecarboxylic acid methyl ester]	≥ 90	–	≥ 90	≥ 90	–
COC(=O)N(C)NC(=O)c1nc(Cl)cc(C)c1NC(=O)c1cc(Br)nn1-c1ncccc1Cl [Compound 8, N′-(3-{[5-bromo-2-(3-chloro-pyridin-2-yl)-2H-pyrazole-3-carbonyl]-amino}-6-chloro-4-methyl-pyridine-2-carbonyl)-N-methyl-hydrazinecarboxylic acid methyl ester]	≥ 90	≥ 80	≥ 90	≥ 90	–
COC(=O)NNC(=O)c1cc(Cl)nc(C)c1NC(=O)c1cc(Br)nn1-c1ncccc1Cl [Compound 3, N′-(3-{[5-bromo-2-(3-chloro-pyridin-2-yl)-2H-pyrazole-3-carbonyl]-amino}-6-chloro-2-methyl-pyridine-4-carbonyl)-hydrazinecarboxylic acid methyl ester]	≥ 90	≥ 80	≥ 90	≥ 90	–
COC(=O)NNC(=O)c1cnn(C)c1NC(=O)c1cc(Br)nn1-c1ncccc1Cl [Compound 19, N′-(5-{[5-bromo-2-(3-chloro-pyridin-2-yl)-2H-pyrazole-3-carbonyl]-amino}-1-methyl-1H-pyrazole-4-carbonyl)-hydrazinecarboxylic acid methyl ester]	≥ 90	–	≥ 90	≥ 90	–
